Assay results: paper PMC4389225, “Triaminopyrimidine is a fast-killing and long-acting antimalarial clinical candidate” (Nature Communications, 2015)
Where two headings read alike, the source gives them in different places.

Tests used:
[1] = 3-day rat tolerability study of compound 2; type: in vivo
Protocol: Protein binding (human free) […]
μM Cmax (total). Consequently, compound 2 was classified as having no therapeutic window preclinically in this model.
Rat 3 Day Toxicology Study: Male Han Wister rats (n=4) received compound 2 at dose levels of 100 or 300 mg/kg for three days (AstraZeneca, Waltham, USA).
One animal was found dead, and one considered moribund on the morning of Day 4, before

Dd2-6R F4 D4 = test: SYBR green growth assay, Dd2-6R F4 D4; details: Plasmodium falciparum
Protocol: (§1) Assays were carried out in 384-well format with three technical replicates within an assay day and biological replicates carried out on three different assay days to assign a final EC50.
(§2) The drug was then washed off and the parasites were allowed to recover in normal growth media.

Caco2 permeability = details: human, Caco-2
Dd2-6R F4 G7 = test: SYBR green growth assay, Dd2-6R F4 G7; details: Plasmodium falciparum
Protocol: as §1, §2

PfATP4 Cpd 3 = test: [3H]-hypoxanthine incorporation assay, PfATP4 Cpd 3 resistant; type: cell-based; details: Plasmodium falciparum
Protocol: Supplementary Table 3: Compound 9 and 12 retain their activity against Pf strains harbouring mutations to novel antimalarial agents in clinical development. Compound 9 and 12 were tested for their antiplasmodial activity against a panel of Pf strains known to harbour mutations conferring resistance to novel agents under clinical development. Parasite growth inhibition is measured using the [3H]-hypoxanthine incorporation assay. IC50s are established for each strain (n ≥2) and compared to the IC50 of Dd2 (standard pan-resistant […]

Blood-plasma ratio, rat = type: in vitro ADME
From the text: Supplementary Note 5: Prediction of human clearance for compound 12 by IVIVE.
Human clearance (CL) was predicted by in vitro-in vivo extrapolation (IVIVE) from the in vitro Clint in human hepatocytes6. In vitro Clint was scaled to in vivo Clint as follows:
Clint in vivo = Clint in vitro * scaling factors * fublood/fuinc
The liver weights used for scaling were 40, 32 and 24 g/kg body weight in rat, dog and human respectively. Hepatocellularity used for scaling was 163, 169 and 120 (X 106) cells/g liver in rat, dog and human respectively. Free fraction in blood was calculated as fuplasma /Blood:Plasma (BP) ratio. BP ratio and free fraction in the hepatocyte incubation mix, fuinc, were measured in vitro. Slope and intercept from the linear regression analysis of IVIVC for a large number of AstraZeneca compounds was applied for final correction in the scaled in vivo Clint. A well stirred model was used for CL prediction.
Where Qh is the liver blood flow. The values of Qh in rat, dog and human are 72, 55 and 20 mL.min-1kg-1 in rat, dog and human, respectively. In vitro parameters, observed in vivo CL and predicted CL are shown in supplementary Table 10. […]
(also on this page, place not known: in vivo in vivo CLintQ CLintQCL Predicted predicted predicted h h + ×=)
(1 picture or pasted object on this page, not shown here)

Dd2-6R F2 B5 = test: SYBR green growth assay, Dd2-6R F2 B5
Protocol: as §1, §2

Dd2 = test: [3H]-hypoxanthine incorporation assay, Dd2; type: cell-based, Plasmodium falciparum; details: Plasmodium falciparum, DD2
Protocol: 9 and 12 were tested for their antiplasmodial activity against a panel of Pf strains known to harbour mutations conferring resistance to novel agents under clinical development. Parasite growth inhibition is measured using the [3H]-hypoxanthine incorporation assay. IC50s are established for each strain (n ≥2) and compared to the IC50 of Dd2 (standard pan-resistant

[2] = test system: Pf male and female gametes; test: Pf male and female dual gamete assay; details: Plasmodium falciparum, read-out: inhibition in Pf male and female dual gamete assay
[3] = PK in the blood of infected Pf/SCID mice; type: in vivo, mouse
Protocol: Peripheral blood samples (25 μl) were taken at different times (0.25, 0.5, 1, 2, 4, 6, 8 and 23 h), mixed with 25 μl of H2O Mili-Q and immediately frozen on dry ice. The frozen samples were stored at −80 °C until analysis. Vehicle-treated mice experienced the same blood-sampling regimen. Blood samples were processed by liquid–liquid extraction by mixing 10 μl diluted blood with 180 μl AcN:MeOH (80:20; v-v) mixture. Quantitative analysis by Liquid chromatography-tandem mass spectrometry (LC-MS/MS) was performed using UPLC (Waters) and Sciex API4000. The lower limit of quantification in this assay was 0.005 μg ml^−1.

[4] = Dog plasma PK, IV and oral; type: in vivo; details: male, Beagle; for clearance / AUC(0-inf) / AUC(0-t) / Cmax / MRT / half-life / Vd / bioavailability: dog; for half-life: read-out: t½ (converted); for Vd: read-out: Vss
Protocol: Pharmacokinetic studies to estimate the blood levels of compounds in dogs. PK in fasted, male Beagle dogs (n = 2 per dose) was studied after a single dose administered by intravenous infusion for 15 min (IV) or by an oral route (PO). Solution formulation containing 10% ethanol, 30% PEG 400, 60% saline was used for IV administration and a suspension in 0.5% w/v HPMC with 0.1% v/v Tween 80 was used for oral administration.
48 hours after an oral dose of 5 mg/kg. Blood samples were centrifuged and plasma samples were analyzed by LC/MS/MS. Dog PK profiles are shown in supplementary Fig. 11 and PK parameters are described in supplementary Table 9.

[5] = plasma, iv, 2.1 mg/kg, IV 2.1 mg kg-1, Dog 1
[6] = plasma, iv, 2.1 mg/kg, IV 2.1 mg kg-1, Dog 2
[7] = plasma, iv, 2.1 mg/kg, IV 2.1 mg kg-1, Mean
[8] = plasma, po, 5.1 mg/kg, Oral 5.1 mg kg-1, Dog 1
[9] = plasma, po, 5.1 mg/kg, Oral 5.1 mg kg-1, Dog 2
[10] = plasma, po, 5.1 mg/kg, Oral 5.1 mg kg-1, Mean

Which results are given for `Cc1cc(Nc2ncc(N3CCN(C)CC3)c(N3CCCC3)n2)ccn1` [compound 2]?
A - Plasma Cmax Total ([1]; 100 mg/kg oral): 8130 nM; Safety Margin (A / B) ([1]; 100 mg/kg oral): None; Summary of clinical signs and effects ([1]; 100 mg/kg oral): Non-specific toxicity; A - Plasma Cmax Total ([1]; 300 mg/kg oral): 19180 nM; Safety Margin (A / B) ([1]; 300 mg/kg oral): None; Summary of clinical signs and effects ([1]; 300 mg/kg oral): Premature decedents

Which IC50 (Dd2-6R F4 D4) does the source give for `Cc1nc(Nc2ncc(N3CCN(C)[C@H](C)C3)c(Nc3cc(C)n(C)n3)n2)cc(C2CC2)c1F` [compound 12, (R)-N2-(4-cyclopropyl-5-fluoro-6-methylpyridin-2-yl)-N4-(1,5-dimethyl-1H-pyrazol-3-yl)-5-(3,4-dimethylpiperazin-1-yl)pyrimidine-2,4-diamine] here?
The IC50 was 81.6 nM.

And the Papp A→B (Caco2 permeability)?
The Papp A→B was 25 ×10⁻⁶ cm/s.

What about the IC50 (Dd2-6R F4 G7) of the same compound?
The IC50 was 90.7 nM.

What about the IC50 (PfATP4 Cpd 3) of the same compound?
Its IC50 is 10 nM.

What about the “B:P ratio” value (Blood-plasma ratio, rat) of the same compound?
The value was 1.65.

What about the IC50 (Dd2-6R F2 B5; Plasmodium falciparum, DD2) of the same compound?
The IC50 was 81 ± 17.9 nM.

And the “increase in IC50 compared with the parental Dd2 line” value (Dd2-6R F2 B5; compound 6-resistant Dd2-6R clones (five clones))?
Its value is 3-6 fold.

And the IC50 (Dd2)?
Its IC50 is 3.5 nM.

What about the inhibition at 1 µM [2] of the same compound?
The inhibition at 1 µM was 16.5 ± 6.3%.

What about the CL/F ([3]; SCID, mouse, whole blood, oral, parent, Fixed) of the same compound?
The CL/F was 650 mL/min/kg.

And the “Blood Cmin (minimum parasiticidal concentration, MPC)” value ([3]; at 40 mg kg^−1)?
The value was 40 nM.

What about the Ka ([3]; parent, Fixed) of the same compound?
Its Ka is 1 h⁻¹.

What about the Ke0 ([3]; parent, Fixed) of the same compound?
Its Ke0 is 0.06 h⁻¹.

What about the Vc/F ([3]; parent, Fixed) of the same compound?
Its Vc/F is 462 L/kg.

What about the clearance ([4]; blood, iv, 2.1 mg kg-1, Dog, read-out: Observed blood CL) of the same compound?
Its clearance is 19 mL/min/kg.

And the AUC(0-inf) [4, 5]?
The AUC(0-inf) was 2.72 µM·h.

And the AUC(0-t) [4, 5]?
The AUC(0-t) was 2.16 µM·h.

And the Cmax [4, 5]?
Its Cmax is 641 nM.

And the MRT [4, 5]?
Its MRT is 15.1 h.

What about the half-life [4, 5] of the same compound?
The half-life was 11 h.

What about the AUC(0-inf) [4, 6] of the same compound?
Its AUC(0-inf) is 3.47 µM·h.

And the AUC(0-t) [4, 6]?
Its AUC(0-t) is 2.68 µM·h.

And the Cmax [4, 6]?
The Cmax was 515 nM.

What about the MRT [4, 6] of the same compound?
The MRT was 15.9 h.

And the half-life [4, 6]?
The half-life was 11 h.

What about the AUC(0-inf) [4, 7] of the same compound?
The AUC(0-inf) was 3.1 µM·h.

What about the AUC(0-t) [4, 7] of the same compound?
The AUC(0-t) was 2.42 µM·h.

And the Cmax [4, 7]?
Its Cmax is 578 nM.

And the MRT [4, 7]?
Its MRT is 15.5 h.

What about the half-life [4, 7] of the same compound?
The half-life was 11 h.

What about the clearance ([4]; plasma, iv, 2.1 mg/kg, plasma, IV 2.1 mg kg-1, Dog 1, read-out: CL) of the same compound?
Its clearance is 27.5 mL/min/kg.

And the Vd ([4]; plasma, iv, 2.1 mg/kg, plasma, IV 2.1 mg kg-1, Dog 1)?
Its Vd is 24.9 L/kg.

And the clearance ([4]; plasma, iv, 2.1 mg/kg, plasma, IV 2.1 mg kg-1, Dog 2, read-out: CL)?
The clearance was 21.3 mL/min/kg.

And the Vd ([4]; plasma, iv, 2.1 mg/kg, plasma, IV 2.1 mg kg-1, Dog 2)?
The Vd was 20.4 L/kg.

What about the clearance ([4]; plasma, iv, 2.1 mg/kg, plasma, IV 2.1 mg kg-1, Mean, read-out: CL) of the same compound?
The clearance was 24.4 mL/min/kg.

What about the Vd ([4]; plasma, iv, 2.1 mg/kg, plasma, IV 2.1 mg kg-1, Mean) of the same compound?
The Vd was 22.7 L/kg.

What about the AUC(0-inf) [4, 8] of the same compound?
The AUC(0-inf) was 5.87 µM·h.

And the AUC(0-t) [4, 8]?
Its AUC(0-t) is 5.27 µM·h.

What about the Cmax [4, 8] of the same compound?
The Cmax was 300 nM.

What about the bioavailability [4, 8] of the same compound?
Its bioavailability is 88.1%.

And the half-life [4, 8]?
The half-life was 15.2 h.

And the AUC(0-inf) [4, 9]?
The AUC(0-inf) was 8.28 µM·h.

And the AUC(0-t) [4, 9]?
The AUC(0-t) was 7.48 µM·h.

And the Cmax [4, 9]?
The Cmax was 603 nM.

And the bioavailability [4, 9]?
Its bioavailability is 96.4%.

What about the half-life [4, 9] of the same compound?
The half-life was 17 h.

And the AUC(0-inf) [4, 10]?
The AUC(0-inf) was 7.08 µM·h.

What about the AUC(0-t) [4, 10] of the same compound?
Its AUC(0-t) is 6.38 µM·h.

What about the Cmax [4, 10] of the same compound?
Its Cmax is 452 nM.

What about the bioavailability [4, 10] of the same compound?
The bioavailability was 92.3%.

What about the half-life [4, 10] of the same compound?
Its half-life is 16.1 h.

And the Tmax ([4]; plasma, Oral 5.1 mg kg-1, Dog 1)?
Its Tmax is 2 h.
